Reference: EP0880540B1, “17-BETA-CYCLOPROPYL(AMINO/OXY) 4-AZA STEROIDS AS ACTIVE INHIBITORS OF TESTOSTERONE 5-ALPHA-REDUCTASE AND C17-20-LYASE” (Aventis Pharmaceuticals Inc., priority 1996, dated 1997)

Molecular target: T1, cynomolgus monkey prostatic 5α-reductase (Macaca fascicularis, UniProt Q28892)
T1 construct: microsomal preparations of the 5α-reductase enzyme from laboratory animal prostate tissue; from tissue; host or cells: cynomolgus monkey prostate, microsomes
T1 sequence (Q28892 1-254): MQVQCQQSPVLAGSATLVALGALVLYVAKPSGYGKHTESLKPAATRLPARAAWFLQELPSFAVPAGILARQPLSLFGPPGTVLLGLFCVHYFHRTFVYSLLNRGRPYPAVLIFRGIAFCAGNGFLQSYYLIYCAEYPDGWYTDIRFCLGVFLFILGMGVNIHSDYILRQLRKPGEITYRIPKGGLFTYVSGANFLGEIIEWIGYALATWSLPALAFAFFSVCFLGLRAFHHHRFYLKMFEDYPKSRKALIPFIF
Experiment: In vitro 5α-reductase assay, prostate microsomes
Type: biochemical
Settings: mean of duplicates
Method: In vitro 5α-reductase assays: The activity of the present compounds as inhibitors of steroid 5α-reductase was determined using microsomal preparations of the 5α-reductase enzyme from laboratory animal prostate tissue. Specifically, microsomes were isolated from cynomolgus monkey prostate tissue. Protein concentration of the microsomal preparations was determined prior to use of the samples. Individual assays of cynomolgus monkey prostatic 5α-reductase activity contained 0.1 M potassium phosphate-sodium citrate buffer, pH 5.6 1.0% (w/v) bovine serum albumin, […] sodium EDTA, 4 µg of microsomal protein, 1.0 mM NADPH, 5.0 mM glucose-6-phosphate, 1 IU/mL glucose-6-phosphate dehydrogenase, [1,2-^3H]-testosterone (0.15 µCi) plus unlabeled testosterone to yield 0.015 µM (Km = 0.015 µM to 0.091 µM in multiple determinations), and test compound which was dissolved in DMSO then diluted in 0.1 M potassium phosphate-sodium citrate buffer, pH 5.6, to yield a final assay concentration of 0.1% (v/v) DMSO. The same buffer and DMSO without test compound were used in control assays. Background radioactivity was determined from assays containing all components except enzyme. Assays were performed in duplicate. Microsomes, 0.1 M potassium phosphate-sodium citrate buffer, pH 5.6, and test compound were preincubated at 37°C. Aliquots of 180 µL were removed after 0 or 40 minutes of preincubation and added to […] of testosterone substrate suspended in 0.1 M potassium phosphate-sodium citrate buffer, pH 5.6, containing 10% (v/v) DMSO. Remaining enzyme activity was assayed for 10 minutes at 37°C in a Dubnoff shaker incubator.
The reactions were terminated by the addition of 5 mL CHCl3:methanol (2:1) and 0.9 mL water. Carrier steroids were added in the form of 2.5 µg each of testosterone, dihydrotestosterone, and 3,17-androstanediol. Steroid metabolites were then extracted according to the procedure of Moore and Wilson (Methods in Enzymol., O'Malley, B.W. and Hardman, J.G. eds., 36, 1975, pp. 466-474), the organic phase containing the steroids was evaporated using nitrogen gas, the residues were dissolved in 3% (v/v) isopropanol in hexane. The steroids were then separated by normal phase HPLC on a LiCrosorb® DIOL derivatized silica gel column (10 µm; 4 x 250 mm) with a 3% to 7.5% isopropanol in hexane gradient, followed by isocratic conditions of […] isopropanol in hexane. Radioactivity in the steroid peaks was measured using a Packard Radiomatic model HS Flo-One detector. When the compound were tested using the above procedures with cynomolgus monkey 5α-reductase, the following results were obtained: Table 2: […]

Molecule `CC12CCC3C(CC[C@H]4NC(=O)CCC34C)C1CC[C@@H]2OC1CC1` (stereo partly drawn) [MDL 103,432, 17β-Cyclopropyloxy-4-aza-5α-androstan-3-one] has an inhibition at 0.1 µM (preincubation 0 min) of 78.7%, an inhibition at 0.1 µM (preincubation 40 min) of 80% and an inhibition at 1 µM (preincubation 0 min) of 98.7%. The inhibition at 1 µM (preincubation 40 min) was 99.3%, the inhibition at 10 µM (preincubation 0 min) was 99.4% and the inhibition at 10 µM (preincubation 40 min) was 99.4%.
